Data set [1] can be described thus: pharmacokinetic studies of modafinil in the human body (literature). The format is in vivo. The note with it: l-enantiomer versus d-enantiomer. The method, then:
The optical enantiomers of modafinil have similar pharmacological actions in animals. […] Owing to the differences in half-life and rate of clearance of the individual enantiomers, the use of racemic modafinil results in differences in the circulating levels of the two enantiomers. […] After a single oral dose, racemic modafinil is readily absorbed, reaching maximum plasma concentrations at 2 hours to 4 hours after administration (see, e.g., Wong et al., J. Clin. Pharmacol., 39: 3040 (1999); Wong et al., J. Clin. Pharmacol., 39: 281-288 (1999); Robertson et al., Clin. Pharmacokinet., 42: 123-137 (2003); and Dinges et al., Curr. Medical Research and Opinions, 22: 159-169 (2006)).

For the next data set, the system named is mice. The note with it: cited from earlier work.
For data set [2] the following is noted: cited from earlier work.
Data set [3] deals with ejaculation during sexual activity. The experiment in a line: Delayed ejaculation with orally administered (tablet) racemic modafinil (Example 2, Subject 2). Format: in vivo, human. The settings on record: 200 mg oral PROVIGIL tablet, hours after dosing. The method, then:
Subject 2 took racemic modafinil (200 mg) in the form of an orally administrable tablet of PROVIGIL® (Cephalon) at 3:00 pm for the purpose of increasing alertness.

Data set [4] has the same test system. The data set can be described thus: Delayed ejaculation with sublingually administered d-modafinil (Example 1, Subject 1). Format: in vivo, human. The settings on record: 100 mg d-modafinil formulation sublingually. The method, then: The synthesized d-modafinil was compounded into a composition containing sugar, spearmint flavor, cinnamon flavor, gum arabic, gelatin, corn syrup, and dyes that could be administered sublingually. Formulations containing 100 mg of d-modafinil were prepared.
Subject 1 took the above-described formulation of d-modafinil sublingually at 9:00 pm in the course of testing a composition containing d-modafinil for a different effect unrelated to sexual activity.

For the compound `NC(=O)C[S@@+]([O-])C(c1ccccc1)c1ccccc1` [l-modafinil, R-(−)-modafinil, reference compound], the “half-life relative to the d-enantiomer” value in data set [1] is listed as “approximately three-times longer”. Also, the “pharmacological activity compared with the modafinil racemic compound” value in the data set with mice is “same pharmacological activity”.

As to `NC(=O)C[S+]([O-])C(c1ccccc1)c1ccccc1` (racemic) [modafinil, 2-[(diphenylmethyl)sulfinyl]acetamide], the “fraction of modafinil eliminated by the liver” value in data set [2] (humans, ingestion of PROVIGIL tablets, package insert) is no more than 90%. The “delay in ejaculation during sexual activity” value in data set [3] is “experienced a delay in ejaculation”.

As for `NC(=O)C[S@+]([O-])C(c1ccccc1)c1ccccc1` [d-modafinil, S-(+)-modafinil], the “amount in the circulation relative to l-modafinil” value in data set [2] (after use of racemic modafinil) is given as “three times less”. In addition, the “elimination rate relative to l-modafinil” value in data set [2] (human, d-modafinil versus l-modafinil) was “three times faster”. In addition, in the data set with mice, the “pharmacological activity compared with the modafinil racemic compound” value is “same pharmacological activity”. Moreover, the “time to ejaculate during sexual activity, factor longer than usual” value in data set [4] (first administration) is “about two to three”. Further, the “time to ejaculate during sexual intercourse, factor of delay” value in data set [4] (second administration a week later) is given as “about two to three”.

The values are drawn from patent US7884135B2, “Modafinil-based treatment for premature ejaculation” (NeuroHealing Pharmaceuticals, Inc., priority 2006, dated 2011).
